Patent publication US20130064955A1, “NATURAL SWEETENED COMPOSITIONS AND METHODS FOR PREPARING THE SAME” (priority 2011, published 2013)
Entries after “also recorded” stand apart in the source; their conditions may differ.

Tests used:
[1] = tested on: human sense of taste; experiment: Determination of sweetness recognition threshold concentration by trained taste tester; format: in vivo; details: in water at room temperature; for minimal effective concentration: Homo sapiens, read-out: Sweetness recognition threshold Level
Protocol: The term “sweetness recognition threshold concentration,” as generally used herein, is the lowest known concentration of a sweet compound that is perceivable by the human sense of taste. The sweetness recognition threshold level is specific for a particular compound, and varies based on temperature, matrix, ingredients and/or flavor system. The sweetness recognition threshold concentrations measurements and 5% sucrose equivalence measurements described herein were determined in water at room temperature.
A sip (approximately 2-5 mL) of control sample, including but not limited to water, was tasted and swallowed by a trained taste tester. After allowing a 15-25 second interval to pass, a second sip of the control is tasted and swallowed. The taste properties of the control are determined and recorded by the trained taste tester. An unknown sample is then tasted and swallowed in the same manner, allowing a 15-25 second interval between the two sips. Preferably no more than ten additives are tested per day to avoid taste fatigue. Each sample was taken at least 1.5 hours following eating or drinking The sweetness recognition thresholds concentration of 21 steviol glycosides were determined in this manner, and are shown in Table 1.

[2] = tested on: human sense of taste; experiment: Sugar-like taste quality enhancement of Stevia sweeteners by steviol glycoside additives, taste test by trained individual; format: in vivo; details: for Taste change of Stevia Sweetener REBA (303 ppm) with Steviol Glycoside Additive / Taste change of Stevia Sweetener JSS (380 ppm) with Steviol Glycoside Additive / Taste change of Stevia Sweetener REBD (303 ppm) with Steviol Glycoside Additive: additive at or below its sweetness recognition threshold concentration, 5% sucrose equivalence, water, room temperature; for Taste change of Stevia Sweetener REBA (303 ppm) with Steviol Glycoside Additive: 97% pure rebaudioside A 303 ppm; for Taste change of Stevia Sweetener REBD (303 ppm) with Steviol Glycoside Additive: rebaudioside D 303 ppm; for sugar-like taste quality enhancement effect: mostly in 5% SE rebaudioside A, compared with compound 1;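 as to Taste change of Stevia Sweetener JSS (380 ppm) with Steviol Glycoside Additive: code −B means less bitterness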
Protocol: A steviol glycoside is added in an amount at or below sweetness recognition threshold concentration to a solution of water and a Stevia sweetener. The solution is maintained at room temperature. Each sample is taste tested by a trained individual, as described in Example 1, in duplicate. Preferably no more than ten steviol glycosides are tested per day to avoid taste fatigue. Each sample was taken at least 1.5 hours following eating or drinking
The Stevia sweeteners used in this study were 97% pure rebaudioside A, JSS, and rebaudioside D.
The steviol glycosides were used in at or below sweetness recognition threshold concentrations. […]

[3] = additive at 500 ppm, all three control 5% SE Stevia sweeteners

Compound	Sweetness recognition threshold Level [1]	Taste change of Stevia Sweetener REBA (303 ppm) with Steviol Glycoside Additive [2]	Taste change of Stevia Sweetener JSS (380 ppm) with Steviol Glycoside Additive [2]	Taste change of Stevia Sweetener REBD (303 ppm) with Steviol Glycoside Additive [2]	minimal effective concentration [1]	further results
rebaudioside C	100 ppm	N (N: no difference in presence or absence of steviol glycoside additive;)	N (N: no difference in presence or absence of steviol glycoside additive;)	N (N: no difference in presence or absence of steviol glycoside additive;)		
C=C1C[C@@]23CC[C@H]4[C@@](C)(CCC[C@@]4(C)C(=O)O[C@@H]4O[C@H](CO)[C@@H](O)[C@H](O)[C@H]4O)[C@@H]2CC[C@]1(O[C@@H]1O[C@H](CO)[C@@H](O)[C@H](O[C@@H]2O[C@H](CO)[C@@H](O)[C@H](O)[C@H]2O)[C@H]1O[C@@H]1O[C@H](CO)[C@@H](O)[C@H](O)[C@H]1O)C3 [Rebaudioside A, rebaudioside A]	12.6 ppm		N (N: no difference in presence or absence of steviol glycoside additive;)	N (N: no difference in presence or absence of steviol glycoside additive;)		Sweetness recognition threshold Level ([1]; listed as rebaudioside A): about 12.6 ppm
C[C@@]12CCC[C@@](C)(C(=O)OC3OC(CO)C(O)C(O)C3O)[C@H]1CC[C@@]13C[C@@](OC4OC(CO)C(O)C(OC5OC(CO)C(O)C(O)C5O)C4OC4OC(CO)C(O)C(O)C4O)(CC[C@H]12)[C@](C)(O)C3 (some centres unmarked) [Compound 3]		+, −B, −SL, OF	−B, OF	+, −SL, OF	700 µg/mL	modulation of Stevia sweeteners ([2]; additive at 700 ppm, all Stevia sweeteners): positive modulation of all Stevia sweeteners; off-taste note ([2]; additive at 700 ppm, with Stevia sweeteners): weak chemical-like note; sugar-like taste quality enhancement effect [2]: similar, but smaller positive sugar-like taste quality enhancement effect
C[C@H](CC[C@@H](O[C@@H]1O[C@H](CO[C@@H]2O[C@H](CO)[C@@H](O)[C@H](O)[C@H]2O)[C@@H](O)[C@H](O)[C@H]1O[C@@H]1O[C@H](CO)[C@@H](O)[C@H](O)[C@H]1O)C(C)(C)O)[C@H]1CC[C@@]2(C)[C@@H]3CC=C4[C@@H](CC[C@H](O[C@@H]5O[C@H](CO[C@@H]6O[C@H](CO)[C@@H](O)[C@H](O)[C@H]6O)[C@@H](O)[C@H](O)[C@H]5O)C4(C)C)[C@]3(C)[C@H](O)C[C@]12C [Mogroside V, mogroside V]	20 ppm	N (N: no difference in presence or absence of steviol glycoside additive;)	N (N: no difference in presence or absence of steviol glycoside additive;)	~+S (~+S: Slightly more detected sweetness intensity (~0.5% Sucrose Equivalence);)		Sweetness recognition threshold Level ([1]; listed as mogroside V): about 15 ppm
C=C1C[C@@]23CC[C@H]4[C@@](C)(CCC[C@@]4(C)C(=O)O[C@@H]4O[C@H](CO)[C@@H](O)[C@H](O)[C@H]4O)[C@@H]2CC[C@]1(O[C@@H]1O[C@H](CO)[C@@H](O)[C@H](O)[C@H]1O[C@@H]1O[C@H](CO)[C@@H](O)[C@H](O)[C@H]1O)C3 [Stevioside, stevioside]		N (N: no difference in presence or absence of steviol glycoside additive;)		N (N: no difference in presence or absence of steviol glycoside additive;)	25 µg/mL	
CC1=C[C@@]23CC[C@H]4[C@@](C)(CCC[C@@]4(C)C(=O)OC4OC(CO)C(O)C(O)C4O)[C@@H]2CC[C@]1(OC1OC(CO)C(O)C(OC2OC(CO)C(O)C(O)C2O)C1OC1OC(CO)C(O)C(O)C1O)C3 (some centres unmarked) [Compound 4]		N (N: no difference in presence or absence of steviol glycoside additive;)	N (N: no difference in presence or absence of steviol glycoside additive;)	N (N: no difference in presence or absence of steviol glycoside additive;)	25 µg/mL	
rebaudioside B	25 ppm	N (N: no difference in presence or absence of steviol glycoside additive;)	N (N: no difference in presence or absence of steviol glycoside additive;)	N (N: no difference in presence or absence of steviol glycoside additive;)		
CC1=C[C@@]23CC[C@H]4[C@@](C)(CCC[C@@]4(C)C(=O)O)[C@@H]2CC[C@]1(OC1OC(CO)C(O)C(OC2OC(CO)C(O)C(O)C2O)C1OC1OC(CO)C(O)C(O)C1O)C3 (some centres unmarked) [Compound 2]		++, −SL, −B	DB (DB: Different pattern of bitterness;)	N(+), W	35 µg/mL	sugar-like taste quality enhancement effect [2]: similar, but smaller positive sugar-like taste quality enhancement effect
rebaudioside F	25 ppm	N (N: no difference in presence or absence of steviol glycoside additive;)	N (N: no difference in presence or absence of steviol glycoside additive;)	N (N: no difference in presence or absence of steviol glycoside additive;)		
C=C1C[C@@]23CC[C@H]4[C@@](C)(CCC[C@@]4(C)C(=O)O)[C@@H]2CC[C@]1(O[C@@H]1O[C@H](CO)[C@@H](O)[C@H](O)[C@H]1O[C@@H]1O[C@H](CO)[C@@H](O)[C@H](O)[C@H]1O)C3 [Steviolbioside, steviolbioside]	50 ppm	N (N: no difference in presence or absence of steviol glycoside additive;)	N (N: no difference in presence or absence of steviol glycoside additive;)	N (N: no difference in presence or absence of steviol glycoside additive;)		
C=C1C[C@@]23CC[C@H]4[C@@](C)(CCC[C@@]4(C)C(=O)O[C@@H]4O[C@H](CO)[C@@H](O)[C@H](O)[C@H]4O)[C@@H]2CC[C@]1(O[C@@H]1O[C@H](CO)[C@@H](O)[C@H](O)[C@H]1O)C3 [Rubusoside, rubusoside]		N(+) (N(+): same as “N” but slightly more;)	N (N: no difference in presence or absence of steviol glycoside additive;)	N (N: no difference in presence or absence of steviol glycoside additive;)	50 µg/mL	
C[C@@]12CCC[C@@](C)(C(=O)O)[C@H]1CC[C@@]13C[C@@](OC4OC(CO)C(O)C(OC5OC(CO)C(O)C(O)C5O)C4OC4OC(CO)C(O)C(O)C4O)(CC[C@H]12)[C@](C)(O)C3 (some centres unmarked) [Compound 1]		++, ASLC,; also recorded: +S, −B	++, ASLC,; also recorded: +S, −B	++, ASLC,; also recorded: +S, −B	500 µg/mL	bitterness, sweet lingering, off-taste note [2, 3]: no bitterness, sweet lingering or off-taste note; slightly sweeter profile (increase in sucrose equivalence) [2, 3]: ca. 1 % SE; sugar-like tasting quality enhancement [2, 3]: significantly enhanced all three control 5% SE Stevia sweeteners to a much superior sugar-like tasting quality
C=C1C[C@@]23CC[C@H]4[C@@](C)(CCC[C@@]4(C)C(=O)O[C@@H]4O[C@H](CO)[C@@H](O)[C@H](O)[C@H]4O)[C@@H]2CC[C@]1(O[C@@H]1O[C@H](CO)[C@@H](O)[C@H](O)[C@H]1O[C@@H]1O[C@@H](C)[C@H](O)[C@@H](O)[C@H]1O)C3 [Dulcoside A, dulcoside A]	50 ppm	N (N: no difference in presence or absence of steviol glycoside additive;)	N (N: no difference in presence or absence of steviol glycoside additive;)	N (N: no difference in presence or absence of steviol glycoside additive;)		
